Tests used:
[1] = molecular target: T1, 5-HT3A receptor wild-type (WT, V5-tagged) (Mus musculus, UniProt P23979); experiment: Two-electrode voltage clamp, 5-HT-induced currents in oocytes expressing wild-type 5-HT3A; type: cell-based; settings: wildtype
T1 construct: unrelated to the structural/functional states accessible to a normal full-length 5-HT3A receptor; expressed in transfected cells; host or cells: Xenopus laevis oocytes injected with mRNA
T1 sequence (P23979 24-483 isoform P23979-2 limits assumed): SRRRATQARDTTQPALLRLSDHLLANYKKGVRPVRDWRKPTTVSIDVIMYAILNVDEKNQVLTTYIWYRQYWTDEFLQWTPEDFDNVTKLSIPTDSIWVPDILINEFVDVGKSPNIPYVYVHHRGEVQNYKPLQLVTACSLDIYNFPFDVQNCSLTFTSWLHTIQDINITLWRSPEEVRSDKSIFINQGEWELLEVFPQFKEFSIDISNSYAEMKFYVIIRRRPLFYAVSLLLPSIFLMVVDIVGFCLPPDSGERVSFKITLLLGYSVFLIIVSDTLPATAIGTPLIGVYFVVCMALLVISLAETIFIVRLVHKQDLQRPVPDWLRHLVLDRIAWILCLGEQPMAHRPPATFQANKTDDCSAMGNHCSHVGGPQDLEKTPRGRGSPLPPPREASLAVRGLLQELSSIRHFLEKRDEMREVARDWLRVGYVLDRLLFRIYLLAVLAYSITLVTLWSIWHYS
Description: The mouse 5-HT3A cDNA with an N-terminal V5 epitope tag was cloned into the pXOON vector as previously described [34], and is referred to in this paper as “wild-type” (WT).
All surgery was performed under tricaine anesthesia, and all efforts were made to minimize suffering. Oocyctes were harvested from Xenopus (Nasco Science, Fort Atkinson, WI) anesthetized with 0.15% tricaine. Oocyctes were defolliculated by incubation in 2 mg ml^−1 Type 1A collagenase (Sigma-Aldrich, St. Louis, MO) in OR2 (85 mM NaCl, 2 mM KCl, 1 mM MgCl2, and 5 mM HEPES; pH adjusted to 7.5 with NaOH) for a 60 or 75 min. Oocytes were washed in OR2 and stored at 16°C in SOS medium: 100 mM NaCl, 2 mM KCl, 1 mM MgCl2, 1.8 mM CaCl2 5 mM HEPES, pH 7.5 with 100 IU ml^−1 penicillin, 100 µg ml^−1 streptomycin, and 250 ng ml^−1 amphotericin B (Invitrogen, Carlsbad, CA) and 5% horse serum (Sigma-Aldrich). 24 hrs following isolation, oocyctes were injected with 23 nl (2.3 ng) of mRNA and were kept in SOS media for 2–5 d at 16°C.
Currents were recorded under two-electrode voltage clamp from oocytes 2–5 d post-injection as described previously [37]. […] The perfusion chamber volume was 200 µl. A 3 M KCl/agar bridge connected the ground electrode to the bath. The holding potential was maintained at −60 mV. […] Salts were purchased from Fisher Scientific (Hampton, NH) or Sigma-Aldrich.
Desensitization rates were determined by fitting a single exponential decay function to the current data with Prism 4 software (GraphPad Software). Significant differences compared with wild-type were determined by a one-way ANOVA (p<0.05) using Dunnett's multiple comparison post-hoc test (p<0.05). […] One way ANOVA (P<0.05) with post hoc Dunnett's Multiple Comparison test was performed using Prism 5.0 (Graphpad software.)

[2] = molecular target: T2, 5-HT3A M3M4 loop SQPAAAA construct (Mus musculus, UniProt P23979); experiment: Two-electrode voltage clamp, oocytes expressing SQPAAAA loop construct; type: cell-based; settings: 10 µM 5-HT, Xenopus oocytes
T2 construct: expressed in transfected cells; host or cells: Xenopus laevis oocytes injected with mRNA
T2 sequence (P23979 with tags, fused parts or gaps): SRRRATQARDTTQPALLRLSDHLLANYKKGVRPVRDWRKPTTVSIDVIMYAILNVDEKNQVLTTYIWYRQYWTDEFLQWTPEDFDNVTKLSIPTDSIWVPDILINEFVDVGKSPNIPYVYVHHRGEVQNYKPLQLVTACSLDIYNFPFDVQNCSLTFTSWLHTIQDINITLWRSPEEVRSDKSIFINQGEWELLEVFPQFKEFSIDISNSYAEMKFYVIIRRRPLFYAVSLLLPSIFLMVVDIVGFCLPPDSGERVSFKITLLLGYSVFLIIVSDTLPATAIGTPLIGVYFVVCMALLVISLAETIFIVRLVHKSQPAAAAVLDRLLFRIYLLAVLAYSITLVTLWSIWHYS
From the text: (§1) The mouse 5-HT3A cDNA with an N-terminal V5 epitope tag was cloned into the pXOON vector as previously described, and is referred to in this paper as “wild-type” (WT). The starting construct for all of the M3M4 loop replacement constructs used in this work was the 5-HT3A-ΔM3M4 construct formed by splicing the cytoplasmic end of M3 (M3-LVHK/QDLQRP…) to the cytoplasmic end of M4 (…WLRVGY/VLDRLL-M4). The splice was made at the site of the “/” to yield the sequence M3-LVHK/VLDRLL-M4 [34]. This removed 115 residues predicted to form the M3M4 loop.
(§2) The construction of the 5-HT3A-glvM3M4 chimera with the 5-HT3A M3M4 loop replaced by the GLIC heptapeptide M3M4 loop (SQPARAA) was described previously. Point mutations, alanine and Gly-Ser-Ala insertions into the 5-HT3A-ΔM3M4 construct were generated with the Quikchange site directed mutagenesis procedure (Stratagene, La Jolla, CA). […]
(§3) Currents were recorded under two-electrode voltage clamp from oocytes 2–5 d post-injection as described previously. […]
(§4) Desensitization rates were determined by fitting a single exponential decay function to the current data with Prism 4 software (GraphPad Software). Significant differences compared with wild-type were determined by a one-way ANOVA (p<0.05) using Dunnett's multiple comparison post-hoc test (p<0.05). […]

[3] = molecular target: T3, 5-HT3A M3M4 loop SQAPARA construct (Mus musculus, UniProt P23979); experiment: Two-electrode voltage clamp, oocytes expressing SQAPARA loop construct; type: cell-based; settings: 10 µM 5-HT, Xenopus oocytes
T3 construct: expressed in transfected cells; host or cells: Xenopus laevis oocytes injected with mRNA
T3 sequence (P23979 with tags, fused parts or gaps): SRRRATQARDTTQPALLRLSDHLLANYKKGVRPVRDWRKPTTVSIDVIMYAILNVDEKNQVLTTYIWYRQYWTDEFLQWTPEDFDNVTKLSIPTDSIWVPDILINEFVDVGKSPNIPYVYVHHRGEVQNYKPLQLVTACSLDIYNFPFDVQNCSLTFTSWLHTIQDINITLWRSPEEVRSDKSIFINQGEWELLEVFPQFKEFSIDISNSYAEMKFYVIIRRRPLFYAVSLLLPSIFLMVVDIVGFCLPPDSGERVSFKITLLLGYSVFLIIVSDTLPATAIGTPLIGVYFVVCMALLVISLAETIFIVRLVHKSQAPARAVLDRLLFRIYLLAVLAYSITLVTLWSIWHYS
From the text: as §1, §2, §3, §4

[4] = molecular target: T4, 5-HT3A M3M4 loop AAPARAA construct (Mus musculus, UniProt P23979); experiment: Two-electrode voltage clamp, oocytes expressing AAPARAA loop construct; type: cell-based; settings: 10 µM 5-HT, Xenopus oocytes
T4 construct: expressed in transfected cells; host or cells: Xenopus laevis oocytes injected with mRNA
T4 sequence (P23979 with tags, fused parts or gaps): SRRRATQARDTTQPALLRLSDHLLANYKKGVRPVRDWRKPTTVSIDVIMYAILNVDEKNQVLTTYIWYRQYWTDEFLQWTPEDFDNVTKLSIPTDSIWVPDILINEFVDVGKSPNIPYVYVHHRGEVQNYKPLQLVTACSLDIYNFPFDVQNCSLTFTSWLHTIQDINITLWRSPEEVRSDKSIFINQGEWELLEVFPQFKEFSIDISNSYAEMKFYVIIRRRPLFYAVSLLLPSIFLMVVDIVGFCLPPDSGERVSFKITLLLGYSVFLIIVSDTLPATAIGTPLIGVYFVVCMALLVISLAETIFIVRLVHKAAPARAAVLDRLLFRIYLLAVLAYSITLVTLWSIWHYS
From the text: as §1, §2, §3, §4

[5] = molecular target: T5, 5-HT3A M3M4 loop GSA mutant (Mus musculus, UniProt P23979, DELINS338-452GSA); experiment: Two-electrode voltage clamp, oocytes expressing GSA M3M4 mutant; type: cell-based; settings: 10 µM 5-HT, Xenopus oocytes
T5 construct: expressed in transfected cells; host or cells: Xenopus laevis oocytes injected with mRNA
T5 sequence (P23979 with tags, fused parts or gaps isoform P23979-2 DELINS338-452GSA limits assumed): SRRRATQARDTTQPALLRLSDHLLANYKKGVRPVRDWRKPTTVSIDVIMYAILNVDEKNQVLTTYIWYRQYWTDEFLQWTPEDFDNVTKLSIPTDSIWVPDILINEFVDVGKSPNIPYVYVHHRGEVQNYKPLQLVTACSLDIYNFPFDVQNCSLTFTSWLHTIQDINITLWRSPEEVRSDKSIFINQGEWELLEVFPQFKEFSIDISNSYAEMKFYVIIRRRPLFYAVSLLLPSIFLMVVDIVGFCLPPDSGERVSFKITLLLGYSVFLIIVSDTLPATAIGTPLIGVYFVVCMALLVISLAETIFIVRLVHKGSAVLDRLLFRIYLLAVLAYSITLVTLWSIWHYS
From the text: as §1, §2, §3, §4

[6] = molecular target: T6, 5-HT3A M3M4 loop GSAGSAGSA mutant (Mus musculus, UniProt P23979); experiment: Two-electrode voltage clamp, oocytes expressing […] M3M4 mutant; type: cell-based; settings: Xenopus oocytes
T6 construct: expressed in transfected cells; host or cells: Xenopus laevis oocytes injected with mRNA
T6 sequence (P23979 with tags, fused parts or gaps isoform P23979-2 limits assumed, change not shown): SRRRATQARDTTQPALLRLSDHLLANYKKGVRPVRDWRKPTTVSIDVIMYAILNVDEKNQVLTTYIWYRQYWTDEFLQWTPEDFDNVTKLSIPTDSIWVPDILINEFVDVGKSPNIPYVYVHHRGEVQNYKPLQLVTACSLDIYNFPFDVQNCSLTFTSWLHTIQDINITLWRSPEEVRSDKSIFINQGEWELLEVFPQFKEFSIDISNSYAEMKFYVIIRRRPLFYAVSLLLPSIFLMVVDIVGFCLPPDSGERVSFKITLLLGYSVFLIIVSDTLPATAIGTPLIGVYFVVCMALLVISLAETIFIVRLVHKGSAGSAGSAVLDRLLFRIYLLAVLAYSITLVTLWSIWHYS
From the text: as §1, §2, §3, §4

[7] = molecular target: T7, 5-HT3A receptor wild-type (Mus musculus, UniProt P23979); experiment: Radioactive 5-HT binding to oocytes expressing WT 5-HT3A; settings: 150 nM [3H]5-HT + 10 µM 5-HT, 5 min room temperature, 45 s cold wash
T7 construct: unrelated to the structural/functional states accessible to a normal full-length 5-HT3A receptor; expressed in transfected cells; host or cells: Xenopus laevis oocytes injected with mRNA
Description: (§5) Assays were terminated by five washes with ice cold CFFR buffer, followed by solubilization of the oocytes individually with 200 µl 5% SDS. Total wash time was 45 s. […] All data points represent the average of at least fifteen individual oocytes derived from three separate oocyte isolations.
(§6) To determine the extent of non-specific binding, all binding experiments were performed in parallel with diethylpyrocarbonate-(DEPC)-treated-water injected oocytes or uninjected oocytes.

[8] = molecular target: T8, 5-HT3A-A2 (Mus musculus, UniProt P23979, DELINS338-452AA); experiment: Radioactive 5-HT binding to oocytes expressing 5-HT3A-A2; settings: 150 nM [3H]5-HT + 10 µM 5-HT, 5 min, 45 s cold wash
T8 construct: expressed in transfected cells; host or cells: Xenopus laevis oocytes injected with mRNA
T8 sequence (P23979 with tags, fused parts or gaps isoform P23979-2 DELINS338-452AA limits assumed): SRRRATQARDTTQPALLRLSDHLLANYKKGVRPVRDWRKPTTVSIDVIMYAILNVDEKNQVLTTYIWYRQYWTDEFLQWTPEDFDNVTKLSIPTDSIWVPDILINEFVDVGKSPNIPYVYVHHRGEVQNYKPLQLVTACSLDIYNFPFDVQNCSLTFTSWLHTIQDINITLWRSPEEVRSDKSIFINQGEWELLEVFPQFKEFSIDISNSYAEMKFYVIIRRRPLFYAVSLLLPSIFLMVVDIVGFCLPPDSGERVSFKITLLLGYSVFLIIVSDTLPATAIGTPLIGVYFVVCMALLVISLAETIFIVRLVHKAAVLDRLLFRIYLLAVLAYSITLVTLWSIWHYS
Description: as §5, §6

Compound: NCCc1c[nH]c2ccc(O)cc12 [5-HT, 5-hydroxytryptamine]
- 10–90% Activation rise time ([1]; 10 µM 5-HT): 587 ± 51 ms
- Imax (peak current) ([1]; 10 µM 5-HT (saturating), Xenopus oocytes, -60 mV): 7300±700 nA
- Desensitization time constant τ ([1]; prolonged 10 µM 5-HT, Ca-free buffer): 77 ± 18 s
- 5-HT induced current [2]: large currents
- Peak current [3]: 87±30 nA
- Channel function (5-HT induced current) [4]: non-functional channels
- 5-HT induced current [5]: 50±12 nA
- 5-HT induced current [6]: no detectable currents
- Radiolabeled 5-HT bound per oocyte [7]: 2.50±0.3 pmol per oocyte
- Radiolabeled 5-HT bound per oocyte [8]: 0.33±0.06 pmol per oocyte
